The values that follow come from US20110008415A1, “NOVEL LIPOPHILIC COMPOSITIONS AND USES THEREOF” (UNIVERSITE DE BRETAGNE OCCIDENTALE, priority 2007, published 2011).

A word on the pKa: it is the pH at which an ionisable group is half protonated.

For series [1] the following is noted: basic side chain / imidazole ring; cited from earlier work.
A short description of series [2]: pKa of basic side chain / imidazole ring. The class given is physicochemical.
Series [3] concerns 293T7 cells (human kidney embryonal fibroblasts). Kind of series: Transfection of 293T7 cells with luciferase plasmid/liposome complexes. It counts as cell-based. The following applies: for transfection efficiency when associated with co-lipids 2c or 7b compared with DOPE: 293T line cells, tests considered as a whole; for observed luminescence values: 293T cells; for efficiency gain as compared to DOPE: value in brackets. On the procedure: A lipid film was prepared in a sterile flask under nitrogen by dry evaporating 1 mL of a 10.8 mM cationic lipid or a mixture of a cationic lipid/neutral lipid (molar ratio 1:1) in ethanol. The film was then hydrated with 1 mL of 10 mM HEPES buffer, pH 7.4, the solution was vigorously stirred for 3 min, then allowed to rest at 4° C. After 2 h, the solution was sonicated for 15 min in an ultrasonic bath at 37 kHz (Bioblock ultrasonic bath, Bioblock Scientific, Illkirch, France).
18 μl of a solution of liposomes at 5.4 mM were diluted in 200 μl of 10 mM HEPES buffer, pH 7.4. After 15 min, 7.5 μg of a plasmid encoding the gene of the luciferase (pTG11033; 9514 bp, Transgene S. A., Strasbourg, France) in 20 μl of 10 mM HEPES buffer, pH 7.4, were added to the liposomes and the mixture was allowed to rest for 30 min. The solution comprising the DNA/liposome complexes was adjusted to 1.5 ml with some culture medium free of serum and at 0.15M NaCl with a solution of 5M NaCl.
Two days before transfection, 293T7 cells (human kidney embryonal fibroblasts) were seeded with 1×10^5 cells in 1 mL of a culture medium in a 24-well plate. The day of the transfection, cells achieved 80% confluence. Cells were washed twice with some medium free of serum prior to adding 2.5 μg of DNA in the form of DNA/liposome complexes. After 4 h of incubation at 37° C., the medium was removed and cells were cultured for 48 h with complete culture medium.
The culture medium of the cells was removed and each well was rinsed with 500 μL of PBS. Cell detachment was obtained with 500 μL of the PBS+trypsin per well for 5 min at 37° C. The cell suspension was then centrifuged for 5 min at 250×g (1500 rpm) at 20° C. 400 μL of lysis buffers (CCLR, Promega) were added on the cell pellet, which was allowed to incubate onto ice for 15 min. After Vortex-stirring, centrifugation was effected at 12 000×g for 2 min at 4° C. The luciferase activity contained in 20 μL of supernatant was measured using a luminometer (Bertold Lumat LB 9501) for 10 seconds after injection of 100 μL of luciferin (Luciferase Assay Reagent, Promega). The light transmitted was converted to arbitrary units relative to the protein amount in the sample determined through the bicinchoninic acid method.
The protein amount in the lysate was evaluated through the BCA method (H. Hill and G. Straka, 1998). Proteins were contacted with bicinchoninic acid (BCA) and copper ions in an alkaline medium. The copper ions resulting from the protein-mediated reduction thereof formed stable, colored complexes with BCA. Coloration is objectified through spectrophotometric determination (562 nm). Once a standard range was obtained using bovine serum albumin, the weight of protein contained in the cell lysates was calculated.

[4] abbreviates: co-lipid 2c (molar ratio 1:1), 48 h after transfection.
[5] abbreviates: co-lipid 7b (molar ratio 1:1), 48 h after transfection.
Where [6] appears, read: co-lipid DOPE (molar ratio 1:1), 48 h after transfection.
Setting [7] is: no co-lipid (—), luciferase plasmid pTG11033, 48 h after transfection.

As for `N=C(N)NCCCC[C@H](N)C(=O)O` [Homoarginine], in series [1], the pKa was 12.5.
Turning to `COC(=O)[C@@H](N)CCCNC(=N)N` [arginine methyl ester], the pKa in series [1] was 12.48.
On to `N[C@@H](Cc1c[nH]cn1)C(=O)O` [histidine], for which the “imidazole ring protonated at a physiological pH” value in series [2] was “about 5%”.
In the case of `c1c[nH]cn1` [imidazole], the pKa entry in series [1] was “about 6”.
`COC(=O)[C@@H](N)CCCCN` [lysine methyl ester]: in series [1], the pKa is listed as 10.57.
For the compound “arginine methyl ester dioleoyl-N-phosphoramidate [3a]”, the “transfection efficiency when associated with co-lipids 2c or 7b compared with DOPE” value (“transfection efficiency … compared with DOPE” for short) in series [3] is given as “more efficient”. For the same compound, the observed luminescence values in series [3] (setting [4]) was 5.10^8 TRLU; in series [3] (setting [5]), 10^6 TRLU; in series [3] (setting [6]), 5.10^6 TRLU; in series [3] (setting [7]), 7.10^6 TRLU. The “efficiency gain as compared to DOPE” value turned out to be 100 in series [3] (co-lipid 2c) and 0.2 in series [3] (co-lipid 7b).
With “homoarginine methyl ester dioleoyl-N-phosphoramidate [3b]”, the “transfection efficiency … compared with DOPE” value in series [3] is reported as “more efficient”. The observed luminescence values in series [3] (setting [4]) is listed as 3.10^9 TRLU; in series [3] (setting [5]), 3.10^7 TRLU; in series [3] (setting [6]), 3.10^6 TRLU; in series [3] (setting [7]) it was 9.10^6 TRLU. Further, the “efficiency gain as compared to DOPE” value in series [3] (co-lipid 2c) is 1000; in series [3] (co-lipid 7b), 10.
On to “lysine methyl ester dioleoyl-N-phosphoramidate [compound 4]”, for which, in series [3], the “transfection efficiency … compared with DOPE” value was “more efficient”. Moreover, the observed luminescence values in series [3] (setting [4]) was 5.10^7 TRLU; in series [3] (setting [5]), 4.10^7 TRLU; in series [3] (setting [6]), 3.10^7 TRLU; in series [3] (setting [7]), 2.10^7 TRLU. The “efficiency gain as compared to DOPE” value in series [3] (co-lipid 2c) is given as 1.6; in series [3] (co-lipid 7b), 1.3.
